US11014911B2, “CDK2 inhibitors” (Pfizer Inc., priority 2019, dated 2021)
pKi: −log10 of the molar value.

Legend:
[1] = target: CDK2/Cyclin E1 full length (Homo sapiens (Human), UniProt P24941); assay: CDK2/Cyclin E1 full length mobility shift assay; format: biochemical
GSK3β (H350L) = GSK3β (H350L) (Homo sapiens (Human), UniProt P49841); details: read-out: GSK3β Ki
Chain of GSK3β (H350L) (P49841 whole entry, stated change not applied): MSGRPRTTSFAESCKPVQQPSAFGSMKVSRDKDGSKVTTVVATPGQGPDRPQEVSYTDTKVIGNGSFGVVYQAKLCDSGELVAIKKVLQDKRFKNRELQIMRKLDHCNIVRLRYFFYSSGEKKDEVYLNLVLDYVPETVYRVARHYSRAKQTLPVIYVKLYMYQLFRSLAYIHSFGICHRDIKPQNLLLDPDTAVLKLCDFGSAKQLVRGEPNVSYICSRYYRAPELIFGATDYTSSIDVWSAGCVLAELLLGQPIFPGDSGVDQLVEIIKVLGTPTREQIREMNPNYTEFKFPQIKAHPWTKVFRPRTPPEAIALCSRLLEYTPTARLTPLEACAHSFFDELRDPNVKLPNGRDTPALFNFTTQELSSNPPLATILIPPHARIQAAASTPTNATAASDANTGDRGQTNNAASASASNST
Experimental: The assay was initiated with the addition of ATP, following 15 minutes pre-incubation of enzyme and inhibitor at room temperature in the reaction mixture. The reaction was stopped after 30 minutes at room temperature by the addition of 50 μL of 80 mM EDTA.

SMILES | pKi [1] | pKi (GSK3β (H350L))
Cc1ncc(CC(=O)Nc2cc([C@@H]3CC[C@H](OC(=O)N[C@H]4CC[C@H](O)CC4)C3)[nH]n2)s1 [Example 551, (1S,3R)-3-(3-{[(2-methyl-1,3-thiazol-5-yl)acetyl]amino}-1H-pyrazol-5-yl)cyclopentyl (trans-4-hydroxycyclohexyl)carbamate] | 9.47 | 8.53
COc1cc(CC(=O)Nc2cc([C@@H]3CC[C@H](OC(=O)N[C@H]4CC[C@H](O)CC4)C3)[nH]n2)ccn1 [Example 555, (1S,3R)-3-(3-{[(2-methoxypyridin-4-yl)acetyl]amino}-1H-pyrazol-5-yl)cyclopentyl (trans-4-hydroxycyclohexyl)carbamate] | 9.43 | 8.45
CC[C@H](C)NC(=O)O[C@@H]1CC[C@H](c2cc(NC(=O)Cc3cnn(C)n3)n[nH]2)C1 [Example 330, (1R,3S)-3-(3-{[(2-methyl-2H-1,2,3-triazol-4-yl)acetyl]amino}-1H-pyrazol-5-yl)cyclopentyl (2S)-butan-2-ylcarbamate] | 9.26 | 7.07
CC[C@H](C)NC(=O)O[C@@H]1CC[C@H](c2cc(NC(=O)Cc3ccnc(OC)c3)n[nH]2)C1 [Example 37] | 9.72 | 7.63
CC[C@H](C)NC(=O)O[C@@H]1CC[C@H](c2cc(NC(=O)Cc3ccon3)n[nH]2)C1 [Example 323, (1R,3S)-3-{3-[(1,2-oxazol-3-ylacetyl)amino]-1H-pyrazol-5-yl}cyclopentyl (2S)-butan-2-ylcarbamate] | 8.97 | 7.13
CC[C@H](C)NC(=O)O[C@@H]1CC[C@H](c2cc(NC(=O)Cc3ccc(C)nc3)n[nH]2)C1 [Example 35] | 9.66 | 7.90
CCCCNC(=O)O[C@@H]1CC[C@H](c2cc(NC(=O)Cc3ccno3)n[nH]2)C1 [Example 259, (1R,3S)-3-{3-[(1,2-oxazol-5-ylacetyl)amino]-1H-pyrazol-5-yl}cyclopentyl butylcarbamate] | 9.17 | 7.76
CCNC(=O)O[C@@H]1CC[C@H](c2cc(NC(=O)Cc3ccc(C)nc3)n[nH]2)C1 [Example 227, (1R,3S)-3-(3-{[(6-methylpyridin-3-yl)acetyl]amino}-1H-pyrazol-5-yl)cyclopentyl ethylcarbamate] | 8.92 | 7.72
COc1ccc(CC(=O)Nc2cc([C@H]3CC[C@@H](OC(=O)NC(C)(C)C)C3)[nH]n2)cn1 [Example 114] | 9.72 | 8.25
COc1cnc(CC(=O)Nc2cc([C@H]3CC[C@@H](OC(=O)NC(C)(C)C)C3)[nH]n2)cn1 [Example 109] | 9.17 | 7.41
CC[C@H](C)NC(=O)O[C@@H]1CC[C@H](c2cc(NC(=O)Cc3ccccc3S(=O)(=O)CC)n[nH]2)C1 [Example 40] | 9.62 | 7.19
CC[C@H](C)NC(=O)O[C@@H]1CC[C@H](c2cc(NC(=O)Cc3cncs3)n[nH]2)C1 [Example 36] | 9.77 | 7.67
CCCNC(=O)O[C@H]1CC[C@@H](c2cc(NC(=O)Cc3ccc(OCCN)cc3)n[nH]2)C1 [Example 198, (1S,3R)-3-[3-({[4-(2-aminoethoxy)phenyl]acetyl}amino)-1H-pyrazol-5-yl]cyclopentyl propylcarbamate] | 9.55 | 7.28
Cn1cc(CC(=O)Nc2cc([C@H]3CC[C@@H](OC(=O)NC4(C)CCC4)C3)[nH]n2)cn1 [Example 119] | 9.89 | 7.71
CCCNC(=O)O[C@H]1CC[C@@H](c2cc(NC(=O)Cc3cncs3)n[nH]2)C1 [Example 20] | 9.68 | 7.56
CC[C@H](C)CNC(=O)O[C@@H]1CC[C@H](c2cc(NC(=O)Cc3cnc(C)s3)n[nH]2)C1 [Example 417, (1R,3S)-3-(3-{[(2-methyl-1,3-thiazol-5-yl)acetyl]amino}-1H-pyrazol-5-yl)cyclopentyl [(2S)-2-methylbutyl]carbamate] | 9.09 | 7.90
CC[C@H](C)NC(=O)O[C@@H]1CC[C@H](c2cc(NC(=O)Cc3ccc4c(cnn4C)c3)n[nH]2)C1 [Example 48] | 9.77 | 8.02

More lines, now with the values ahead:

pKi [1] | pKi (GSK3β (H350L)) | SMILES
9.37 | 7.72 | CCCNC(=O)O[C@H]1CC[C@@H](c2cc(NC(=O)Cc3cc(C)no3)n[nH]2)C1 [Example 177, (1S,3R)-3-(3-{[(3-methyl-1,2-oxazol-5-yl)acetyl]amino}-1H-pyrazol-5-yl)cyclopentyl propylcarbamate]
9.49 | 7.27 | CC(C)NC(=O)O[C@@H]1CC[C@H](c2cc(NC(=O)Cc3cc(F)cc(F)c3)n[nH]2)C1 [Example 279, (1R,3S)-3-(3-{[(3,5-difluorophenyl)acetyl]amino}-1H-pyrazol-5-yl)cyclopentyl propan-2-ylcarbamate]
8.93 | 8.20 | Cc1ncc(CC(=O)Nc2cc([C@H]3CC[C@@H](OC(=O)N4C[C@@](C)(O)[C@@H]4C)C3)[nH]n2)s1 [Example 623, (1R,3S)-3-(3-{[(2-methyl-1,3-thiazol-5-yl)acetyl]amino}-1H-pyrazol-5-yl)cyclopentyl (2S,3R)-3-hydroxy-2,3-dimethylazetidine-1-carboxylate]
8.87 | < 7.02 | CCCNC(=O)O[C@H]1CC[C@@H](c2cc(NC(=O)c3ccnc(OC)c3)n[nH]2)C1 [Example 184, (1S,3R)-3-(3-{[(2-methoxypyridin-4-yl)carbonyl]amino}-1H-pyrazol-5-yl)cyclopentyl propylcarbamate]
8.78 | 7.86 | COc1cc(CC(=O)Nc2cc([C@@H]3CC[C@H](OC(=O)N4C[C@H](O)[C@H]4C)C3)[nH]n2)ccn1 [Example 611, (1S,3R)-3-(3-{[(2-methoxypyridin-4-yl)acetyl]amino}-1H-pyrazol-5-yl)cyclopentyl (2R,3S)-3-hydroxy-2-methylazetidine-1-carboxylate]
9.23 | 7.84 | Cc1cc(CC(=O)Nc2cc([C@H]3CC[C@@H](OC(=O)N4CCCC[C@H]4C)C3)[nH]n2)on1 [Example 641, (1R,3S)-3-(3-{[(3-methyl-1,2-oxazol-5-yl)acetyl]amino}-1H-pyrazol-5-yl)cyclopentyl (2R)-2-methylpiperidine-1-carboxylate]
8.34 | 7.62 | CCCNC(=O)O[C@@H]1CC[C@H](c2cc(NC(=O)Cc3ccc(OC)cn3)n[nH]2)C1 (stereo in doubt) [Example 187, (1R,3S)-3-(3-{[(5-methoxypyridin-2-yl)acetyl]amino}-1H-pyrazol-5-yl)cyclopentyl propylcarbamate]
9.49 | 7.78 | CCCNC(=O)O[C@H]1CC[C@@H](c2cc(NC(=O)c3ccnn3C)n[nH]2)C1 [Example 163, (1S,3R)-3-(3-{[(1-methyl-1H-pyrazol-5-yl)carbonyl]amino}-1H-pyrazol-5-yl)cyclopentyl propylcarbamate]
9.42 | 7.25 | Cc1cc(CC(=O)Nc2cc([C@H]3CC[C@@H](OC(=O)NC(C)(C)C)C3)[nH]n2)no1 [Example 295, (1R,3S)-3-(3-{[(5-methyl-1,2-oxazol-3-yl)acetyl]amino}-1H-pyrazol-5-yl)cyclopentyl tert-butylcarbamate]
9.10 | 7.42 | COc1ccc(CC(=O)Nc2cc([C@H]3CC[C@@H](OC(=O)N[C@H]4CC[C@@](C)(O)CC4)C3)[nH]n2)cc1 [Example 566, (1R,3S)-3-(3-{[(4-methoxyphenyl)acetyl]amino}-1H-pyrazol-5-yl)cyclopentyl (cis-4-hydroxy-4-methylcyclohexyl)carbamate]
9.22 | 8.01 | C[C@]1(O)CC[C@@H](NC(=O)O[C@H]2CC[C@@H](c3cc(NC(=O)Cc4ccc(F)cc4)n[nH]3)C2)CC1 [Example 560, (1S,3R)-3-(3-{[(4-fluorophenyl)acetyl]amino}-1H-pyrazol-5-yl)cyclopentyl (cis-4-hydroxy-4-methylcyclohexyl)carbamate]
9.17 | 7.14 | Cc1nnc(CC(=O)Nc2cc([C@H]3CC[C@@H](OC(=O)NC(C)(C)C)C3)[nH]n2)o1 [Example 298, (1R,3S)-3-(3-{[(5-methyl-1,3,4-oxadiazol-2-yl)acetyl]amino}-1H-pyrazol-5-yl)cyclopentyl tert-butylcarbamate]
9.36 | 8.03 | CCCNC(=O)O[C@@H]1CC[C@H](c2cc(NC(=O)Cc3ccc(OC)nc3)n[nH]2)C1 [Example 188, (1R,3S)-3-(3-{[(6-methoxypyridin-3-yl)acetyl]amino}-1H-pyrazol-5-yl)cyclopentyl propylcarbamate]
9.21 | 7.84 | COCCn1nccc1C(=O)Nc1cc([C@H]2CC[C@@H](OC(=O)N3CC[C@@H]3C)C2)[nH]n1 [Example 594, (1R,3S)-3-[3-({[1-(2-methoxyethyl)-1H-pyrazol-5-yl]carbonyl}amino)-1H-pyrazol-5-yl]cyclopentyl (2S)-2-methylazetidine-1-carboxylate]
8.87 | 7.36 | Cc1cnc(CC(=O)Nc2cc([C@H]3CC[C@@H](OC(=O)N[C@@H](C)[C@@H](C)F)C3)[nH]n2)o1 [Example 383, (1R,3S)-3-(3-{[(5-methyl-1,3-oxazol-2-yl)acetyl]amino}-1H-pyrazol-5-yl)cyclopentyl [(2S,3R)-3-fluorobutan-2-yl]carbamate]
9.39 | 7.73 | C[C@]1(O)CC[C@@H](NC(=O)O[C@H]2CC[C@@H](c3cc(NC(=O)Cc4ccccc4)n[nH]3)C2)CC1 [Example 558, (1S,3R)-3-{3-[(phenylacetyl)amino]-1H-pyrazol-5-yl}cyclopentyl (cis-4-hydroxy-4-methylcyclohexyl)carbamate]
9.40 | 7.61 | CCCNC(=O)O[C@H]1CC[C@@H](c2cc(NC(=O)Cc3cnco3)n[nH]2)C1 [Example 166, (1S,3R)-3-{3-[(1,3-oxazol-5-ylacetyl)amino]-1H-pyrazol-5-yl}cyclopentyl propylcarbamate]
9.41 | 6.91 | COc1ccc(S(C)(=O)=O)c(CC(=O)Nc2cc([C@H]3CC[C@@H](OC(=O)NC(C)(C)C)C3)[nH]n2)c1 [Example 319, (1R,3S)-3-[3-({[5-methoxy-2-(methylsulfonyl)phenyl]acetyl}amino)-1H-pyrazol-5-yl]cyclopentyl tert-butylcarbamate]
